Source: ChEMBL document CHEMBL1795227, “Methanesulfonamido-cyclohexylamine derivatives of 2,4-diaminopyrimidine as potent ALK inhibitors” (Bioorg Med Chem Lett, 2011)

Key:
[1] = test system: Mast/stem cell growth factor receptor Kit (Homo sapiens), P10721 [V559D,T670I]; assay: Inhibition of KIT V559D T670I at 1 uM
[2] = target: Aurora kinase A (Homo sapiens) (UniProt O14965); assay: Inhibition of AURKA at 1 uM
[3] = target: Receptor tyrosine-protein kinase erbB-2 (Homo sapiens) (UniProt P04626); assay: Inhibition of ERBB2 at 1 uM
[4] = target: RAC-alpha serine/threonine-protein kinase (Homo sapiens) (UniProt P31749); assay: Inhibition of AKT1 at 1 uM
[5] = target: Mitogen-activated protein kinase 1 (Homo sapiens) (UniProt P28482); assay: Inhibition of ERK2 at 1 uM
[6] = target: RAC-beta serine/threonine-protein kinase (Homo sapiens) (UniProt P31751); assay: Inhibition of AKT2 at 1 uM
[7] = target: Proto-oncogene tyrosine-protein kinase receptor Ret (Homo sapiens) (UniProt P07949); assay: Inhibition of RET at 1 uM
[8] = target: Serine/threonine-protein kinase pim-2 (Homo sapiens) (UniProt Q9P1W9); assay: Inhibition of PIM2 at 1 uM
[9] = target: ALK tyrosine kinase receptor (Homo sapiens, UniProt Q9UM73); assay: Inhibition of autophosphorylation of NPM-ALK in human Karpas-299 cells; assay type: cell-based
[10] = target: Proto-oncogene tyrosine-protein kinase Src (Homo sapiens) (UniProt P12931); assay: Inhibition of SRC at 1 uM
[11] = target: Tyrosine-protein kinase JAK2 (Homo sapiens) (UniProt O60674); assay: Inhibition of JAK2 domain 2 at 1 uM
[12] = target: Mitogen-activated protein kinase 10 (Homo sapiens) (UniProt P53779); assay: Inhibition of JNK3 at 1 uM
[13] = target: Receptor tyrosine-protein kinase erbB-4 (Homo sapiens) (UniProt Q15303); assay: Inhibition of ERBB4 at 1 uM
[14] = target: Mitogen-activated protein kinase 14 (Homo sapiens) (UniProt Q16539); assay: Inhibition of p38 alpha at 1 uM
[15] = target: Mitogen-activated protein kinase 11 (Homo sapiens) (UniProt Q15759); assay: Inhibition of p38 beta at 1 uM
[16] = target: Mitogen-activated protein kinase 12 (Homo sapiens) (UniProt P53778); assay: Inhibition of p38 gamma at 1 uM
Insulin receptor = Insulin receptor (Homo sapiens, UniProt P06213); assay: Inhibition of INSR at 1 uM
[17] = target: Fibroblast growth factor receptor 2 (Homo sapiens) (UniProt P21802); assay: Inhibition of FGFR2 at 1 uM
[18] = target: Fibroblast growth factor receptor 4 (Homo sapiens) (UniProt P22455); conditions: 1 uM
Description: Inhibition of FGFR4 at 1 uM

[19] = target: Serine/threonine-protein kinase PLK1 (Homo sapiens) (UniProt P53350); assay: Inhibition of PLK1 at 1 uM
[20] = target: Vascular endothelial growth factor receptor 2 (Homo sapiens) (UniProt P35968); assay: Inhibition of VEGFR2 at 1 uM
[21] = target: Activin receptor type-1 (Homo sapiens) (UniProt Q04771); assay: Inhibition of ACVR1 at 1 uM
[22] = target: Tyrosine-protein kinase receptor UFO (Homo sapiens) (UniProt P30530); assay: Inhibition of AXL at 1 uM
[23] = target: Ephrin type-A receptor 2 (Homo sapiens) (UniProt P29317); assay: Inhibition of EPHA2 at 1 uM
[24] = target: Mitogen-activated protein kinase 9 (Homo sapiens) (UniProt P45984); assay: Inhibition of JNK2 at 1 uM
[25] = target: Cyclin-dependent kinase 2 (Homo sapiens) (UniProt P24941); assay: Inhibition of CDK2 at 1 uM
[26] = target: Tyrosine-protein kinase ITK/TSK (Homo sapiens) (UniProt Q08881); assay: Inhibition of ITK at 1 uM
[27] = target: Ephrin type-A receptor 3 (Homo sapiens) (UniProt P29320); assay: Inhibition of EPHA3 at 1 uM
[28] = target: Serine/threonine-protein kinase pim-1 (Homo sapiens) (UniProt P11309); assay: Inhibition of PIM1 at 1 uM
[29] = test system: Serine/threonine-protein kinase B-raf (Homo sapiens), P15056 [V600E]; assay: Inhibition of BRAF V600E at 1 uM
[30] = target: Serine/threonine-protein kinase PAK 4 (Homo sapiens) (UniProt O96013); assay: Inhibition of PAK4 at 1 uM
[31] = target: Mast/stem cell growth factor receptor Kit (Homo sapiens) (UniProt P10721); assay: Inhibition of KIT at 1 uM
[32] = target: Glycogen synthase kinase-3 alpha (Homo sapiens) (UniProt P49840); assay: Inhibition of GSK3A at 1 uM
[33] = target: Aurora kinase C (Homo sapiens) (UniProt Q9UQB9); assay: Inhibition of AURKC at 1 uM
[34] = test system: Tyrosine-protein kinase ABL1 (Homo sapiens), P00519 [T315I]; assay: Inhibition of ABL1 T315I at 1 uM
[35] = target: RAF proto-oncogene serine/threonine-protein kinase (Homo sapiens) (UniProt P04049); assay: Inhibition of RAF1 at 1 uM
[36] = target: Tyrosine-protein kinase BTK (Homo sapiens) (UniProt Q06187); assay: Inhibition of BTK at 1 uM
[37] = target: Platelet-derived growth factor receptor beta (Homo sapiens) (UniProt P09619); conditions: 1 uM
Description: Inhibition of PDGFR beta at 1 uM

[38] = target: Serine/threonine-protein kinase PAK 1 (Homo sapiens) (UniProt Q13153); assay: Inhibition of PAK1 at 1 uM
[39] = target: Receptor-type tyrosine-protein kinase FLT3 (Homo sapiens) (UniProt P36888); assay: Inhibition of FLT3 at 1 uM
[40] = target: Epidermal growth factor receptor (Homo sapiens) (UniProt P00533); assay: Inhibition of EGFR at 1 uM
[41] = target: Tyrosine-protein kinase ABL1 (Homo sapiens) (UniProt P00519); assay: Inhibition of ABL1 at 1 uM
[42] = target: Macrophage colony-stimulating factor 1 receptor (Homo sapiens) (UniProt P07333); assay: Inhibition of CSF1R at 1 uM
[43] = target: Tyrosine-protein kinase Lck (Homo sapiens) (UniProt P06239); assay: Inhibition of LCK at 1 uM
[44] = target: Platelet-derived growth factor receptor alpha (Homo sapiens) (UniProt P16234); assay: Inhibition of PDGFRalpha at 1 uM
[45] = target: Serine/threonine-protein kinase STK11 (Homo sapiens) (UniProt Q15831); assay: Inhibition of LKB1 at 1 uM
[46] = target: RAC-gamma serine/threonine-protein kinase (Homo sapiens) (UniProt Q9Y243); assay: Inhibition of AKT3 at 1 uM
[47] = target: Serine/threonine-protein kinase B-raf (Homo sapiens) (UniProt P15056); assay: Inhibition of BRAF at 1 uM
Sequence of Serine/threonine-protein kinase B-raf (Homo sapiens) (P15056 whole entry): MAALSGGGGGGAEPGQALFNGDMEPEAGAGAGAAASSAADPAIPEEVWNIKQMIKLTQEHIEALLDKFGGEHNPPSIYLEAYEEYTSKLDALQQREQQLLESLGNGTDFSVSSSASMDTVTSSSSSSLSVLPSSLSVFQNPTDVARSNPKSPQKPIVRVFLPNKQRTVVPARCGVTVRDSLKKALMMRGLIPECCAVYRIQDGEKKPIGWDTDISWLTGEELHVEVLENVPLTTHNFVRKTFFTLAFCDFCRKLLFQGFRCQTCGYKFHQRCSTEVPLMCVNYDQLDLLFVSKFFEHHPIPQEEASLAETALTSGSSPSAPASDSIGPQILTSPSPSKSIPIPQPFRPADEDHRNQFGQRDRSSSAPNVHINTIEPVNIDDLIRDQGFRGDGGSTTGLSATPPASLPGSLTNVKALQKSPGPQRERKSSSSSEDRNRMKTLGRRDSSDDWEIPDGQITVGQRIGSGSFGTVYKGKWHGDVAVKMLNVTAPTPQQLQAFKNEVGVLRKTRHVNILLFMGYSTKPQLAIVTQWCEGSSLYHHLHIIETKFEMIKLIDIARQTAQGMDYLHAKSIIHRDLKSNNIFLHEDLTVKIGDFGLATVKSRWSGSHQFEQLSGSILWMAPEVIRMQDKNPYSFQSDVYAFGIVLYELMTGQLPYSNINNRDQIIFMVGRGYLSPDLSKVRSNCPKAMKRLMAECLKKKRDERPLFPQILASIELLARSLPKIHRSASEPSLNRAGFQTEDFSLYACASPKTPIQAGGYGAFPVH

Sequence of Platelet-derived growth factor receptor alpha (Homo sapiens) (P16234 whole entry): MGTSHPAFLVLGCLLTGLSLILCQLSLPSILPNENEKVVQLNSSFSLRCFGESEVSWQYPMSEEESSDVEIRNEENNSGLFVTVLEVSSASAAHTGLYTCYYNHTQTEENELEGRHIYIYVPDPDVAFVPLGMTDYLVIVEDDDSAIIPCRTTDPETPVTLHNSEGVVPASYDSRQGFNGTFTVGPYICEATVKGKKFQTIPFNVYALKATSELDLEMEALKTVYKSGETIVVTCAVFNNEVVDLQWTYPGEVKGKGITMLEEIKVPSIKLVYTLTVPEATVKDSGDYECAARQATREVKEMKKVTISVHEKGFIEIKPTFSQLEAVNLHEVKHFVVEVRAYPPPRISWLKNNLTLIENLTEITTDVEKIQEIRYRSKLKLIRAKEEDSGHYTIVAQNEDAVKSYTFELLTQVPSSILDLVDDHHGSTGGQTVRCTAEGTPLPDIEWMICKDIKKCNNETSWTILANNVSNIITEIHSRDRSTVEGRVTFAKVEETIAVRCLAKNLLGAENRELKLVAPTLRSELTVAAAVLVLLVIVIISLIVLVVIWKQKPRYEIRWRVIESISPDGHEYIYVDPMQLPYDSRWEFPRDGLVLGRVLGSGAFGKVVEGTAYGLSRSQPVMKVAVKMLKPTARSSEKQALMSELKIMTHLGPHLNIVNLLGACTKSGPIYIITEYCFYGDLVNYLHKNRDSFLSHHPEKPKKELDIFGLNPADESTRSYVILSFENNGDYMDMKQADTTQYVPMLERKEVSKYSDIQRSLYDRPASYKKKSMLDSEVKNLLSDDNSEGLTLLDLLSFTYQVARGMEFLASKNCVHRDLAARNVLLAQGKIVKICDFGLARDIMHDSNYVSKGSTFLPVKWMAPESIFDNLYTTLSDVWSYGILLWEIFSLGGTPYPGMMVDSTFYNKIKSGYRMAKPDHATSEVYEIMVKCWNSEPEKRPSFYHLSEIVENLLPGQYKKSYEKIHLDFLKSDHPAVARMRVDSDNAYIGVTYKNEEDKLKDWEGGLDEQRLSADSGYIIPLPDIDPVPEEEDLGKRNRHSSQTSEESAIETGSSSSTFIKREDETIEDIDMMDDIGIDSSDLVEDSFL
Sequence of Mitogen-activated protein kinase 14 (Homo sapiens) (Q16539 whole entry): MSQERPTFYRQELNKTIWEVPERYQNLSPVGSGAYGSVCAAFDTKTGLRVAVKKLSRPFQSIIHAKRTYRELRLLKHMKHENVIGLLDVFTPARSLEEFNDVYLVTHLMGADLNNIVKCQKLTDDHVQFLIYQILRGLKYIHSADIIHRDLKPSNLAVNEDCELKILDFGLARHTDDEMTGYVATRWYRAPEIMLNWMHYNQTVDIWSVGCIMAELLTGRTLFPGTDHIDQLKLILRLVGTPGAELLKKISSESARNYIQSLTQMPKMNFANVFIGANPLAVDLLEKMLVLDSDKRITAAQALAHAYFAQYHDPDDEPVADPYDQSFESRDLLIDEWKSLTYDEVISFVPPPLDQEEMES
Sequence of Serine/threonine-protein kinase PAK 4 (Homo sapiens) (O96013 whole entry, looked up): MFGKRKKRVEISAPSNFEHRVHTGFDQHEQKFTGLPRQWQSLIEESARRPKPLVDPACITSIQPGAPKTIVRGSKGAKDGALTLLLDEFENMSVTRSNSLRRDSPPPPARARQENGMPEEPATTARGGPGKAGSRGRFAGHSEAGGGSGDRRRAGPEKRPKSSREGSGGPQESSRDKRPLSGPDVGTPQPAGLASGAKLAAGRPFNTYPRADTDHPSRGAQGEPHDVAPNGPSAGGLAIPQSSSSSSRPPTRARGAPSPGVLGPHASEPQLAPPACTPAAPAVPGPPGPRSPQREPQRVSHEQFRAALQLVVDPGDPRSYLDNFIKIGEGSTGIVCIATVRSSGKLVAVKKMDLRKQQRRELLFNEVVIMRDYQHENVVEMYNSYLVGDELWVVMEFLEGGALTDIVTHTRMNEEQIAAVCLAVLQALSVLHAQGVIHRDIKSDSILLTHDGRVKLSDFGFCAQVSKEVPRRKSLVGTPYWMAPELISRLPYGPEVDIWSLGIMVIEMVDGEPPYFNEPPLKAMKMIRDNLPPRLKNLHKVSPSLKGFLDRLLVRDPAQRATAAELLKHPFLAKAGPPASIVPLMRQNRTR
Sequence of ALK tyrosine kinase receptor (Q9UM73 19-1620 limits assumed): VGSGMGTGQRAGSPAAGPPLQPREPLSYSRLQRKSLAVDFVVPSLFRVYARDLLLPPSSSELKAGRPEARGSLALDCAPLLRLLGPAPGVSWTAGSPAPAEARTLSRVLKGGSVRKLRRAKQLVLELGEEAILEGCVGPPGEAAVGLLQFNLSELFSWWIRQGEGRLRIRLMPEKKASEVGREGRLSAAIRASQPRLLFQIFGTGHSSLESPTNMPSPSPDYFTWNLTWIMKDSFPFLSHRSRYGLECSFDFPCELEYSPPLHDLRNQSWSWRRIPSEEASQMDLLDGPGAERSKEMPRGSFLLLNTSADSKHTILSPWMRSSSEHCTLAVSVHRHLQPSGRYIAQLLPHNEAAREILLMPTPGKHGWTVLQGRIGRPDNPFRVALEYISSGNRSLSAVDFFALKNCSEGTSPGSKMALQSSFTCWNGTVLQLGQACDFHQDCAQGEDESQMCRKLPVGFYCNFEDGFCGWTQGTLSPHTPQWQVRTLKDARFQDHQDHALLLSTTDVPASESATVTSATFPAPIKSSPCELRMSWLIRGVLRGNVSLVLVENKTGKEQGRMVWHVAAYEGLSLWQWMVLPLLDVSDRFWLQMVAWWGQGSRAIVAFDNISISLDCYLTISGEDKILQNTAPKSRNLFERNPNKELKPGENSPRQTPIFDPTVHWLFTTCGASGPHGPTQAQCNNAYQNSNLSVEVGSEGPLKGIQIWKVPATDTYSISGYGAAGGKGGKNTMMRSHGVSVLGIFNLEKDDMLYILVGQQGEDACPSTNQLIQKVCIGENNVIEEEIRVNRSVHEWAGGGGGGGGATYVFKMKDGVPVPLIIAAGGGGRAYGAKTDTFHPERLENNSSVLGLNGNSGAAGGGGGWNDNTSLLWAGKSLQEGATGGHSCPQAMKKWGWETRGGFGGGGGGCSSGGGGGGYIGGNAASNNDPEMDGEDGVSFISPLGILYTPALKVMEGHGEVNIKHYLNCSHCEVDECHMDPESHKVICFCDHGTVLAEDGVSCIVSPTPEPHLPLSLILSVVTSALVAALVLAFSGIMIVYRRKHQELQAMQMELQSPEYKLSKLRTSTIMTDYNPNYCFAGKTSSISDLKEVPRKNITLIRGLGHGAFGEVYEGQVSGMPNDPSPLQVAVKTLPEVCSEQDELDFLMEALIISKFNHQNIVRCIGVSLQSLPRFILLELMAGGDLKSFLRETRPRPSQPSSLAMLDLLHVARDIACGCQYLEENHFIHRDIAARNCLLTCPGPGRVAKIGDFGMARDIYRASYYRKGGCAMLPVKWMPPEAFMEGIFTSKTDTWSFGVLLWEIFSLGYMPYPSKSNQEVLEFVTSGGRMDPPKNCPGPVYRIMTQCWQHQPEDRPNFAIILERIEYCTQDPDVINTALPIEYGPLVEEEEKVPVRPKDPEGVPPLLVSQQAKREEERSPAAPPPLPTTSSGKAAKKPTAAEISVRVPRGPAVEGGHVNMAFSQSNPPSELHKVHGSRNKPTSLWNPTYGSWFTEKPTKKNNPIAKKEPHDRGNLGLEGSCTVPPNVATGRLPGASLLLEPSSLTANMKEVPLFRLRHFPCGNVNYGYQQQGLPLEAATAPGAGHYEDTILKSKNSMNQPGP
Sequence of Mitogen-activated protein kinase 10 (Homo sapiens) (P53779 whole entry): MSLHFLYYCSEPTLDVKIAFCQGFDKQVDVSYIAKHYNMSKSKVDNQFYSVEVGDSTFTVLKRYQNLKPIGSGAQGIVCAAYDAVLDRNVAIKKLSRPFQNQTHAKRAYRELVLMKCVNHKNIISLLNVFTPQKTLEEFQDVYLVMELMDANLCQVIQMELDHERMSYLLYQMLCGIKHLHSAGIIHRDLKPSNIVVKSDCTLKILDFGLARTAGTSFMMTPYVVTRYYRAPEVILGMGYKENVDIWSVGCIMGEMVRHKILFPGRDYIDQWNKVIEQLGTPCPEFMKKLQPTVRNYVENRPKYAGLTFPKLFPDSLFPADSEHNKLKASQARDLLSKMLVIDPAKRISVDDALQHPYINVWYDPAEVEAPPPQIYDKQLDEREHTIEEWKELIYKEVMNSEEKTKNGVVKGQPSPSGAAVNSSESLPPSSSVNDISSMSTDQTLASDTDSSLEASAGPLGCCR
Sequence of Serine/threonine-protein kinase B-raf (Homo sapiens), P15056 [V600E] (P15056 whole entry V600E): as the sequence (P15056 whole entry) above, with V600E counted along it

COCCN1CCc2cc(Nc3ncc(Cl)c(N[C@@H]4CCCC[C@H]4NS(C)(=O)=O)n3)c(OC)cc2CC1
inhibition [1]: < 65%
inhibition [2]: < 65%
inhibition [3]: < 65%
inhibition [4]: < 65%
inhibition [5]: < 65%
inhibition [6]: < 65%
inhibition [7]: < 65%
inhibition [8]: < 65%
IC50 [9]: 0.065 µM
inhibition [10]: < 65%
inhibition [11]: < 65%
inhibition [12]: < 65%
inhibition [13]: 74%
inhibition [14]: < 65%
inhibition [15]: < 65%
inhibition [16]: < 65%
inhibition (Insulin receptor): < 65%
inhibition [17]: < 65%
inhibition [18]: < 65%
inhibition [19]: 94%
inhibition [20]: < 65%
inhibition [21]: < 65%
inhibition [22]: < 65%
inhibition [23]: < 65%
inhibition [24]: < 65%
inhibition [25]: < 65%
inhibition [26]: < 65%
inhibition [27]: < 65%
inhibition [28]: < 65%
inhibition [29]: < 65%
inhibition [30]: < 65%
inhibition [31]: < 65%
inhibition [32]: < 65%
inhibition [33]: < 65%
inhibition [34]: < 65%
inhibition [35]: < 65%
inhibition [36]: < 65%
inhibition [37]: < 65%
inhibition [38]: < 65%
inhibition [39]: 82%
inhibition [40]: < 65%
inhibition [41]: < 65%
inhibition [42]: < 65%
inhibition [43]: < 65%
inhibition [44]: < 65%
inhibition [45]: < 65%
inhibition [46]: < 65%
inhibition [47]: < 65%

COCCN1CCc2cc(Nc3ncc(Cl)c(N[C@@H]4CCCC[C@H]4N(C)S(C)(=O)=O)n3)c(OC)cc2CC1
inhibition [1]: 92%
inhibition [2]: < 65%
inhibition [3]: < 65%
inhibition [4]: < 65%
inhibition [5]: < 65%
inhibition [6]: < 65%
inhibition [7]: < 65%
inhibition [8]: < 65%
IC50 [9]: 0.015 µM
inhibition [10]: < 65%
inhibition [11]: < 65%
inhibition [12]: 98%
inhibition [13]: 98%
inhibition [14]: < 65%
inhibition [15]: < 65%
inhibition [16]: < 65%
inhibition (Insulin receptor): 70%
inhibition [17]: 99%
inhibition [18]: 100%
inhibition [19]: 96%
inhibition [20]: < 65%
inhibition [21]: < 65%
inhibition [22]: < 65%
inhibition [23]: < 65%
inhibition [24]: < 65%
inhibition [25]: < 65%
inhibition [26]: < 65%
inhibition [27]: < 65%
inhibition [28]: 90%
inhibition [29]: < 65%
inhibition [30]: < 65%
inhibition [31]: 96%
inhibition [32]: < 65%
inhibition [33]: < 65%
inhibition [34]: < 65%
inhibition [35]: < 65%
inhibition [36]: < 65%
inhibition [37]: 100%
inhibition [38]: < 65%
inhibition [39]: 99%
inhibition [40]: 89%
inhibition [41]: < 65%
inhibition [42]: 98%
inhibition [43]: < 65%
inhibition [44]: < 65%
inhibition [45]: 94%
inhibition [46]: < 65%
inhibition [47]: < 65%
